In PubChem BioAssay (NCI):
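These data come from cells grown in 96-well plates and exposed to compound for 48 hours at five concentrations. TGI marks complete inhibition of growth.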

Experiments:
Test in all cases: NCI-60 cell line screen, 48 h
786-0 renal = tested on: 786-0 renal
DLD-1 colon = tested on: DLD-1 colon
LOX IMVI melanoma = tested on: LOX IMVI melanoma
HL-60(TB) leukemia = tested on: HL-60(TB) leukemia
HOP-62 NSCLC = tested on: HOP-62 NSCLC
HOP-92 NSCLC = tested on: HOP-92 NSCLC
M19-MEL melanoma = tested on: M19-MEL melanoma
SF-539 CNS = tested on: SF-539 CNS
SNB-19 CNS = tested on: SNB-19 CNS
LXFL 529 NSCLC = tested on: LXFL 529 NSCLC
MOLT-4 leukemia = tested on: MOLT-4 leukemia
KM20L2 colon = tested on: KM20L2 colon
OVCAR-4 ovarian = tested on: OVCAR-4 ovarian
RPMI-8226 leukemia = tested on: RPMI-8226 leukemia
OVCAR-8 ovarian = tested on: OVCAR-8 ovarian
UACC-62 melanoma = tested on: UACC-62 melanoma
ACHN renal = tested on: ACHN renal
SK-OV-3 ovarian = tested on: SK-OV-3 ovarian
OVCAR-3 ovarian = tested on: OVCAR-3 ovarian
DMS 114 small cell lung = tested on: DMS 114 small cell lung
IGROV1 ovarian = tested on: IGROV1 ovarian
HCC-2998 colon = tested on: HCC-2998 colon
RXF 393 renal = tested on: RXF 393 renal
EKVX NSCLC = tested on: EKVX NSCLC
NCI-H23 lung = tested on: NCI-H23 lung
NCI-H460 lung = tested on: NCI-H460 lung
SN12C renal = tested on: SN12C renal
SNB-75 CNS = tested on: SNB-75 CNS
TK-10 renal = tested on: TK-10 renal
CCRF-CEM leukemia = tested on: CCRF-CEM leukemia
COLO 205 colon = tested on: COLO 205 colon
HCT-15 colon = tested on: HCT-15 colon
HCT-116 colon = tested on: HCT-116 colon
A498 renal = tested on: A498 renal
K-562 leukemia = tested on: K-562 leukemia
RXF-631 renal = tested on: RXF-631 renal
SF-295 CNS = tested on: SF-295 CNS
SNB-78 CNS = tested on: SNB-78 CNS
SK-MEL-5 melanoma = tested on: SK-MEL-5 melanoma
HOP-18 NSCLC = tested on: HOP-18 NSCLC
DMS 273 small cell lung = tested on: DMS 273 small cell lung
SW-620 colon = tested on: SW-620 colon
A549 NSCLC = tested on: A549 NSCLC
U251 CNS = tested on: U251 CNS
M14 melanoma = tested on: M14 melanoma
SK-MEL-28 melanoma = tested on: SK-MEL-28 melanoma
XF 498 CNS = tested on: XF 498 CNS
SK-MEL-2 melanoma = tested on: SK-MEL-2 melanoma
OVCAR-5 ovarian = tested on: OVCAR-5 ovarian
KM12 colon = tested on: KM12 colon
SF-268 CNS = tested on: SF-268 CNS
UO-31 renal = tested on: UO-31 renal
NCI-H522 lung = tested on: NCI-H522 lung
NCI-H226 lung = tested on: NCI-H226 lung
HT29 colon = tested on: HT29 colon
SR leukemia = tested on: SR leukemia
UACC-257 melanoma = tested on: UACC-257 melanoma
MALME-3M melanoma = tested on: MALME-3M melanoma

## C/C(=N\NC(N)=S)c1ccc(Oc2ccccc2)cc1
786-0 renal
  TGI: 14.5 µM
DLD-1 colon
  TGI: 16.9 µM
LOX IMVI melanoma
  TGI: 34.5 µM
HL-60(TB) leukemia
  TGI: 23 µM
HOP-62 NSCLC
  TGI: 46.6 µM
HOP-92 NSCLC
  TGI: 9.48 µM
M19-MEL melanoma
  TGI: 47.2 µM
SF-539 CNS
  TGI: 17.6 µM
SNB-19 CNS
  TGI: 84.5 µM
LXFL 529 NSCLC
  TGI: 17.5 µM
MOLT-4 leukemia
  TGI: 17.4 µM
KM20L2 colon
  TGI: 26.5 µM
OVCAR-4 ovarian
  TGI: 16.8 µM
RPMI-8226 leukemia
  TGI: 10.9 µM
OVCAR-8 ovarian
  TGI: 52.3 µM
UACC-62 melanoma
  TGI: 28.8 µM
ACHN renal
  TGI: 42.7 µM
SK-OV-3 ovarian
  TGI: 36.3 µM
OVCAR-3 ovarian
  TGI: 22.9 µM
DMS 114 small cell lung
  TGI: 17.9 µM
IGROV1 ovarian
  TGI: 12.5 µM
HCC-2998 colon
  TGI: 28.7 µM
RXF 393 renal
  TGI: 26.2 µM
EKVX NSCLC
  TGI: 50.4 µM
NCI-H23 lung
  TGI: 83.3 µM
NCI-H460 lung
  TGI: 42.6 µM
SN12C renal
  TGI: 38.4 µM
SNB-75 CNS
  TGI: 33.6 µM
TK-10 renal
  TGI: 21.8 µM
CCRF-CEM leukemia
  TGI: 37.2 µM
COLO 205 colon
  TGI: 25.7 µM
HCT-15 colon
  TGI: 22.5 µM
HCT-116 colon
  TGI: 22.6 µM
A498 renal
  TGI: 29.5 µM
K-562 leukemia
  TGI: 21.5 µM
RXF-631 renal
  TGI: 43.7 µM
SF-295 CNS
  TGI: 38.4 µM
SNB-78 CNS
  TGI: 47.7 µM
SK-MEL-5 melanoma
  TGI: 18.8 µM
HOP-18 NSCLC
  TGI: 80 µM
DMS 273 small cell lung
  TGI: 20.7 µM
SW-620 colon
  TGI: 53.9 µM
A549 NSCLC
  TGI: 74.4 µM
U251 CNS
  TGI: 31.3 µM
M14 melanoma
  TGI: 25.8 µM
SK-MEL-28 melanoma
  TGI: 33.2 µM

## COc1cc(CC2c3cc(OC)c(OC)cc3CCN2C)c(C(=O)O)cc1OC (centres undefined)
786-0 renal
  TGI: > 100 µM
DLD-1 colon
  TGI: > 100 µM
XF 498 CNS
  TGI: > 100 µM
LOX IMVI melanoma
  TGI: > 100 µM
HL-60(TB) leukemia
  TGI: > 100 µM
HOP-62 NSCLC
  TGI: > 100 µM
SK-MEL-2 melanoma
  TGI: > 100 µM
OVCAR-5 ovarian
  TGI: > 100 µM
HOP-92 NSCLC
  TGI: > 100 µM
M19-MEL melanoma
  TGI: > 100 µM
KM12 colon
  TGI: > 100 µM
SF-539 CNS
  TGI: > 100 µM
SNB-19 CNS
  TGI: > 100 µM
SF-268 CNS
  TGI: > 100 µM
LXFL 529 NSCLC
  TGI: > 100 µM
UO-31 renal
  TGI: > 100 µM
MOLT-4 leukemia
  TGI: > 100 µM
KM20L2 colon
  TGI: > 100 µM
RPMI-8226 leukemia
  TGI: > 100 µM
OVCAR-8 ovarian
  TGI: > 100 µM
UACC-62 melanoma
  TGI: > 100 µM
ACHN renal
  TGI: > 100 µM
SK-OV-3 ovarian
  TGI: > 100 µM
OVCAR-3 ovarian
  TGI: > 100 µM
DMS 114 small cell lung
  TGI: > 100 µM
HCC-2998 colon
  TGI: > 100 µM
RXF 393 renal
  TGI: > 100 µM
EKVX NSCLC
  TGI: > 100 µM
NCI-H522 lung
  TGI: > 100 µM
NCI-H23 lung
  TGI: > 100 µM
NCI-H226 lung
  TGI: > 100 µM
SN12C renal
  TGI: > 100 µM
HT29 colon
  TGI: > 100 µM
SR leukemia
  TGI: > 100 µM
SNB-75 CNS
  TGI: > 100 µM
UACC-257 melanoma
  TGI: > 100 µM
TK-10 renal
  TGI: > 100 µM
CCRF-CEM leukemia
  TGI: > 100 µM
COLO 205 colon
  TGI: > 100 µM
HCT-116 colon
  TGI: > 100 µM
A498 renal
  TGI: > 100 µM
K-562 leukemia
  TGI: > 100 µM
SF-295 CNS
  TGI: > 100 µM
MALME-3M melanoma
  TGI: > 100 µM
SNB-78 CNS
  TGI: > 100 µM
SK-MEL-5 melanoma
  TGI: > 100 µM
HOP-18 NSCLC
  TGI: > 100 µM
DMS 273 small cell lung
  TGI: > 100 µM
SW-620 colon
  TGI: > 100 µM
A549 NSCLC
  TGI: > 100 µM
U251 CNS
  TGI: > 100 µM
M14 melanoma
  TGI: > 100 µM
SK-MEL-28 melanoma
  TGI: > 100 µM
